Each structure is given as a SMILES string.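 The compound was tested at five concentrations on cells cultured in 96-well plates, with a 48-hour exposure period. Here, GI50 denotes the concentration required for 50% inhibition of growth.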 Activity calls are given as the source filed them. Rule as the data show it: active = GI50 up to about 1.1 µM and inactive = higher. Where only a bound is given, the exact number is not on record here.

Test systems include HCT-15; SF-295; OVCAR-5; IGROV-1; SF-268; RXF 393; M14; SK-OV-3; MOLT-4; SK-MEL-5; HL-60; A498; NCI-H460; UO-31; NCI-H522; UACC-257; HOP-92.
Experiment in all cases: NCI-60 cell line screen, 48 h

Take `O=C1CNC(=O)c2[nH]cnc2N1`: the GI50 in the experiment with HCT-15 is greater than 100 µM; in the experiment with SF-295 it was > 100 µM (inactive); in the experiment with OVCAR-5, > 100 µM (inactive); in the experiment on IGROV-1, > 100 µM (inactive); with SF-268 it was > 100 µM (inactive); with RXF 393, > 100 µM (inactive). Besides, the GI50 with M14, with SK-OV-3, with MOLT-4, in the experiment with SK-MEL-5, with HL-60 and in the experiment on A498 was > 100 µM (inactive) throughout. In addition, the GI50 with NCI-H460 and in the experiment on UO-31 was > 100 µM (inactive) each time.

For the compound `O=C(CC1(O)C(=O)Nc2c(Cl)ccc(Cl)c21)c1ccc2ccccc2c1` (configuration not stated), the GI50 was 6.19 µM in the experiment on HCT-15; 4.92 µM (inactive) in the experiment with SF-295; 17.3 µM (inactive) with OVCAR-5; 14.3 µM (inactive) in the experiment on IGROV-1; 14.5 µM (inactive) in the experiment with SF-268; 11.6 µM (inactive) in the experiment on RXF 393. The GI50 with M14 was 8.85 µM (inactive); in the experiment with NCI-H522 it was 2.88 µM (inactive); in the experiment on SK-OV-3, 11.9 µM (inactive); with MOLT-4 it was 10.8 µM (inactive); in the experiment on UACC-257 it was 12.2 µM (inactive); in the experiment on SK-MEL-5 it was 5.65 µM (inactive). Also, the GI50 is 1.73 µM (inactive) with HL-60, 16.3 µM (inactive) in the experiment with A498, 9.2 µM (inactive) in the experiment on NCI-H460 and 18.1 µM (inactive) in the experiment with UO-31.

Consider `CS(=O)(=O)OCCN1CCN(C(=O)c2cccc3c(Nc4ccc(S(=O)(=O)N=C(N)N)cc4)c4ccccc4nc23)CC1`, for which the GI50 in the experiment on HOP-92 is > 100 µM (inactive); in the experiment on HCT-15, greater than 100 µM; in the experiment on SF-295, > 100 µM (inactive); in the experiment on OVCAR-5, > 100 µM (inactive); with IGROV-1, > 100 µM (inactive); in the experiment on SF-268 it was > 100 µM (inactive). The GI50 in the experiment with RXF 393, in the experiment on M14, in the experiment on SK-OV-3, in the experiment on MOLT-4, with UACC-257 and in the experiment on SK-MEL-5 was > 100 µM (inactive) each time. Further, the GI50 in the experiment on HL-60, in the experiment on A498, in the experiment with NCI-H460 and in the experiment on UO-31 was > 100 µM (inactive) each time.

As to `CCOC(=O)C(Oc1ccc(OC)c2c1C(=O)CCC2)c1ccccc1` (configuration not stated), the GI50 is greater than 100 µM in the experiment with HCT-15; 69.5 µM (inactive) in the experiment with SF-295; > 100 µM (inactive) in the experiment with OVCAR-5; > 100 µM (inactive) in the experiment on IGROV-1; > 100 µM (inactive) in the experiment on SF-268; > 100 µM (inactive) in the experiment on M14. Besides, the GI50 was 94 µM (inactive) with NCI-H522; > 100 µM (inactive) in the experiment on SK-OV-3; 33.7 µM (inactive) with MOLT-4; > 100 µM (inactive) in the experiment with UACC-257; 43.2 µM (inactive) with SK-MEL-5; 49 µM (inactive) in the experiment with HL-60. Also, the GI50 in the experiment on A498 is > 100 µM (inactive); with NCI-H460, > 100 µM (inactive); with UO-31 it was 53.2 µM (inactive).

On to `CN1C(c2ccccc2)CS(=O)(=O)CS1(=O)=O` (configuration not stated), for which the GI50 was greater than 100 µM in the experiment on HCT-15; > 100 µM (inactive) in the experiment with SF-295; > 100 µM (inactive) in the experiment with OVCAR-5; > 100 µM (inactive) in the experiment on IGROV-1; > 100 µM (inactive) with SF-268; > 100 µM (inactive) in the experiment with RXF 393. For the same compound, the GI50 in the experiment on M14, with SK-OV-3, with UACC-257, in the experiment on SK-MEL-5, in the experiment with A498 and in the experiment on NCI-H460 was > 100 µM (inactive) throughout. In the experiment on UO-31, the GI50 was > 100 µM (inactive).

Consider `CCN(CC)CCCNc1nccc2c(C)c3c(cc12)c1cnccc1n3C`, for which the GI50 in the experiment on HCT-15 is 0.0468 µM; in the experiment with SF-295, 0.206 µM (active); with IGROV-1, 0.4 µM (active); with SF-268 it was 0.294 µM (active); with M14 it was 0.26 µM (active); in the experiment on SK-OV-3 it was 0.377 µM (active). The GI50 was < 0.01 µM (active) with MOLT-4; 0.431 µM (active) in the experiment with SK-MEL-5; 1.18 µM (inactive) in the experiment on A498; 0.0111 µM (active) with NCI-H460; 0.748 µM (active) in the experiment on UO-31.

In the case of `O=C(NC12CC3CC(CC(C3)C1)C2)C(=O)c1c[nH]c2ccc(Cl)cc12`, the GI50 is 22.9 µM (inactive) in the experiment with HOP-92; 21.2 µM in the experiment with HCT-15; 11.1 µM (inactive) with SF-295; > 100 µM (inactive) with OVCAR-5; 54.1 µM (inactive) with IGROV-1; 49 µM (inactive) with SF-268. The GI50 in the experiment on M14 was 20 µM (inactive); in the experiment with NCI-H522 it was 85.5 µM (inactive); with SK-OV-3 it was 32.7 µM (inactive); with MOLT-4 it was 7.89 µM (inactive); with UACC-257, 97.1 µM (inactive); with SK-MEL-5, 42.2 µM (inactive). Besides, the GI50 in the experiment with HL-60 is 17.3 µM (inactive); with NCI-H460, 22.2 µM (inactive); in the experiment on UO-31, 66.4 µM (inactive).

As to `C/C(CC(=O)Nc1cccc([N+](=O)[O-])c1)=N/NC(N)=S`, the GI50 in the experiment on HOP-92, in the experiment with SF-295, with OVCAR-5, in the experiment with IGROV-1, with SF-268 and in the experiment on RXF 393 was > 100 µM (inactive) in each case. For the same compound, the GI50 in the experiment on M14, in the experiment with NCI-H522, in the experiment with SK-OV-3, in the experiment with MOLT-4, in the experiment on UACC-257 and in the experiment with SK-MEL-5 was > 100 µM (inactive) throughout. The GI50 in the experiment on HL-60, in the experiment on NCI-H460 and in the experiment with UO-31 was > 100 µM (inactive) throughout.

On to `FC(F)(F)c1ccc2nc(Nc3ccc(Cl)c(Cl)c3)c(-c3ccccc3)nc2c1`, for which the GI50 is 46.7 µM (inactive) with HOP-92; 0.659 µM in the experiment with HCT-15; 18.7 µM (inactive) with SF-295; > 100 µM (inactive) in the experiment with OVCAR-5; 14.6 µM (inactive) in the experiment on SF-268; 39.1 µM (inactive) in the experiment with RXF 393. The GI50 with MOLT-4 is 6.81 µM (inactive); in the experiment on UACC-257 it was 85.5 µM (inactive); in the experiment on HL-60 it was 8.57 µM (inactive); with NCI-H460, 7.05 µM (inactive); in the experiment with UO-31, > 100 µM (inactive).

In the case of `COC(=O)C(Cc1nc2ccc(Cl)cc2nc1O)C(=O)C(=O)Nc1cc(C)ccc1C` (configuration not stated), the GI50 in the experiment with HCT-15 was greater than 100 µM; in the experiment with SF-295, > 100 µM (inactive); in the experiment with OVCAR-5 it was > 100 µM (inactive); in the experiment with IGROV-1, > 100 µM (inactive); with SF-268, > 100 µM (inactive); in the experiment with RXF 393, > 100 µM (inactive). The GI50 with M14, in the experiment on NCI-H522, in the experiment on SK-OV-3, in the experiment on MOLT-4, in the experiment with UACC-257 and in the experiment with SK-MEL-5 was > 100 µM (inactive) each time. Moreover, the GI50 in the experiment with HL-60, in the experiment with A498, in the experiment with NCI-H460 and with UO-31 was > 100 µM (inactive) throughout.

In the case of `CC(=O)NNc1nc(C)c(C(/C=C/c2ccc(/C=C/C(=N\NC(=O)c3ccncc3)c3sc(NNC(C)=O)nc3C)cc2)=N/NC(=O)c2ccncc2)s1`, the GI50 in the experiment with HOP-92 was 54 µM (inactive); with HCT-15 it was greater than 100 µM; in the experiment with SF-295 it was > 100 µM (inactive); in the experiment on OVCAR-5, > 100 µM (inactive); in the experiment on IGROV-1, > 100 µM (inactive); with SF-268, > 100 µM (inactive). The GI50 with RXF 393 was > 100 µM (inactive); in the experiment on M14 it was 41.7 µM (inactive); in the experiment on SK-OV-3 it was > 100 µM (inactive); in the experiment on MOLT-4 it was > 100 µM (inactive); in the experiment with UACC-257 it was 44.5 µM (inactive); in the experiment on SK-MEL-5, > 100 µM (inactive). Further, the GI50 with HL-60, in the experiment with A498, with NCI-H460 and with UO-31 was > 100 µM (inactive) each time.

`O=C1c2ccccc2C(=O)c2cc3c(cc21)C[S+]([O-])C3`: the GI50 with HOP-92 is > 100 µM (inactive); with HCT-15, greater than 10 µM; with SF-295, > 100 µM (inactive); with OVCAR-5 it was > 100 µM (inactive); with IGROV-1, > 100 µM (inactive); in the experiment with SF-268, > 100 µM (inactive). Moreover, the GI50 with RXF 393, in the experiment with M14, in the experiment with NCI-H522, in the experiment on SK-OV-3, in the experiment with MOLT-4 and in the experiment with UACC-257 was > 100 µM (inactive) in each case. Also, the GI50 in the experiment on SK-MEL-5, with HL-60, in the experiment on NCI-H460 and in the experiment with UO-31 was > 100 µM (inactive) in each case.

In the case of `Clc1cc(Cl)cc(Nc2nc3ccccc3nc2-c2cccs2)c1`, the GI50 with HOP-92 was 12.4 µM (inactive); in the experiment on HCT-15 it was greater than 100 µM; in the experiment with SF-295, 22.1 µM (inactive); with OVCAR-5 it was 83.4 µM (inactive); with SF-268, 34 µM (inactive); with RXF 393 it was 17.1 µM (inactive). In addition, the GI50 was 31.3 µM (inactive) in the experiment on SK-OV-3; 47.2 µM (inactive) with MOLT-4; 23.7 µM (inactive) in the experiment with UACC-257; 25.8 µM (inactive) in the experiment on HL-60; 14.3 µM (inactive) in the experiment with NCI-H460; 42.6 µM (inactive) in the experiment with UO-31.

Turning to `C=CCC1=C2CCCCC2CCC1=O` (configuration not stated), the GI50 in the experiment with HCT-15 was greater than 100 µM; in the experiment on SF-295 it was > 100 µM (inactive); with OVCAR-5, > 100 µM (inactive); in the experiment with IGROV-1 it was > 100 µM (inactive); with SF-268, > 100 µM (inactive); with RXF 393, > 100 µM (inactive). In addition, the GI50 in the experiment on M14, with NCI-H522, in the experiment on SK-OV-3, in the experiment with MOLT-4, with UACC-257 and in the experiment on SK-MEL-5 was > 100 µM (inactive) throughout. The GI50 in the experiment with HL-60, in the experiment with A498, in the experiment with NCI-H460 and with UO-31 was > 100 µM (inactive) each time.

Source of the values: ChEMBL document CHEMBL1201862, “PubChem BioAssay data set” (2004).
